How the values were obtained:
[1] = system: MDA-MB-231 human breast carcinoma cells; assay: In vitro proliferation inhibition assay (LDH activity, 72 hours); format: cell-based; details: MDA-MB-231 cells; for inhibition at 10 µM: read-out: % inhibition at a concentration of 10 μM; for inhibition at 2 µM: read-out: % inhibition at a concentration of 2 μM
Procedure: In vitro Proliferation Inhibition Assay:
MDA-MB-231 human breast carcinoma cells (ATCC #HTB26) were cultured in standard growth medium (DMEM), supplemented with 10% heat-inactivated FBS, 10 mM HEPES, 2 mM glutamine, 100 U/mL penicillin, and 100 μg/mL streptomycin) at 37° C. in 5% CO2 (vol/vol) in a humidified incubator. Cells were plated at a density of 3000 cells per well in 100 μL growth medium in a 96 well culture dish. 24 hours after plating, lactate dehydrogenase (LDH) activity was determined using the Cytotox 96 Non-radioactive Cytotoxicity Kit (Promega, Madison Wis., U.S.A.) to yield T0h LDH values. Briefly, cells were lysed with the addition of 200 μL of Lysis Buffer (included in the Promega Kit) and lysates were further diluted 1:50 in Lysis Buffer. 50 μL of diluted cell lysate were transferred to a fresh 96 well culture plate. The assay was initiated with the addition of 50 μL of substrate per well. Color development was allowed to proceed for 10-15 minutes. The assay was terminated with the addition of 50 μL of Stop Solution (included in the Promega Kit). Optical densities were determined spectrophotometrically at 490 nm in a 96 well plate reader (SpectraMax 250, Molecular Devices, Sunnyvale, Calif., U.S.A.).
Test compounds were dissolved in 100% DMSO to prepare 10 mM stocks. Stocks were further diluted 1:250 in growth medium to yield working stocks of 40 μM test compound in 0.4% DMSO. Test compounds were serially diluted in growth medium containing 0.4% DMSO to maintain constant DMSO concentrations for all wells. 50 μL of fresh growth medium and 50 μL of diluted test compound were added to each culture well to give a final volume of 200 μL. The cells with and without individual test compounds were incubated for 72 hours at which time LDH activity was measured to yield T72h values. Optionally, the IC50 values can be determined with a least squares analysis program using compound concentration versus percent inhibition.
% Inhibition=[1−(T72h test−T0h)/(T72h ctrl−T0h)]×100
T72h test=LDH activity at 72 hours in the presence of test compound
T72h ctrl=LDH activity at 72 hours in the absence of test compound
T0h=LDH activity at Time Zero

PDE 10a = target: T1, PDE 10a (Homo sapiens, UniProt Q9Y233); assay: In vitro enzyme inhibition assay (PDE 10a, scintillation proximity, [3H]cAMP substrate); format: biochemical; details: full-length recombinant PDE 10a, crude Sf9 cell lysate; 60 minutes, room temperature
T1 construct: Full-length recombinant PDE 10a was expressed in Sf9 insect cells; made in house; host or cells: Sf9 insect cells (baculovirus, Bac-to-Bac)
Procedure: In vitro Enzyme Inhibition Assay:
Full-length recombinant PDE 10a was expressed in Sf9 insect cells (Invitrogen, Carlsbad, Calif., U.S.A.) using the Bac-to-Bac™ Baculovirus Expression System (Life Technologies, Gaithersburg, Md., U.S.A.). 48 hours post infection, cells were harvested and resuspended in 20 mL (per 1L culture) Lysis Buffer (50 mM Tris-HCl, pH 7.4, 50 mM NaCl, 1 mM MgCl2, 1.5 mM EDTA, 10% glycerol plus 20 μL Protease Inhibitor Cocktail Set III [CalBiochem, La Jolla, Calif., U.S.A.]). Cells were sonicated at 4° C. for 1 minute and centrifuged at 10,000 RPM for 30 minutes at 4° C. Supernatant was removed and stored at −20° C. for activity assays.
The test compounds were serially diluted in DMSO using two-fold dilutions to stock concentrations ranging typically from 200 μM to 1.6 μM (final concentrations in the assay range from 4 μM to 0.032 μM). 96-well assay isoplates (Wallac Inc., Atlanta, Ga., U.S.A.) were loaded with 2 μL of the serially diluted individual test compounds followed by 50 μL of a dilution of crude recombinant PDE 10a-containing sf9 cell lysate. The dilution of the lysate was selected such that less than 70% of the substrate is converted during the later incubation (typical dilution: 1:10000; dilution buffer: 50 mM Tris/HCl pH 7.5, 8.3 mM MgCl2, 1.7 mM EDTA, 0.2% BSA). The substrate, [5′,8-^3H] adenosine 3′,5′-cyclic phosphate (1 μCi/μL; Amersham Pharmacia Biotech., Piscataway, N.J., U.S.A.), was diluted 1:2000 in assay buffer (assay buffer: 50 mM Tris/HCl pH 7.5, 8.3 mM MgCl2, 1.7 mM EDTA) to give a final working concentration of 0.0005 μCi/μL. The enzymatic assay was initiated by addition of 50 μL (0.025 μCi) of diluted substrate. Reactions were incubated at room temperature for 60 minutes and terminated by addition of 25 μL of 18 mg/mL Yttrium Scintillation Proximity Beads (Amersham Pharmacia Biotech., Piscataway, N.J., U.S.A.). Plates were sealed and incubated at room temperature for 60 minutes. Plates were read for 30 seconds/well using a Microbeta counter (Wallac Inc., Atlanta, Ga., U.S.A.). The IC50 values were determined by plotting compound concentration versus percent inhibition.

T1 sequence (Q9Y233 1-779 isoform Q9Y233-1): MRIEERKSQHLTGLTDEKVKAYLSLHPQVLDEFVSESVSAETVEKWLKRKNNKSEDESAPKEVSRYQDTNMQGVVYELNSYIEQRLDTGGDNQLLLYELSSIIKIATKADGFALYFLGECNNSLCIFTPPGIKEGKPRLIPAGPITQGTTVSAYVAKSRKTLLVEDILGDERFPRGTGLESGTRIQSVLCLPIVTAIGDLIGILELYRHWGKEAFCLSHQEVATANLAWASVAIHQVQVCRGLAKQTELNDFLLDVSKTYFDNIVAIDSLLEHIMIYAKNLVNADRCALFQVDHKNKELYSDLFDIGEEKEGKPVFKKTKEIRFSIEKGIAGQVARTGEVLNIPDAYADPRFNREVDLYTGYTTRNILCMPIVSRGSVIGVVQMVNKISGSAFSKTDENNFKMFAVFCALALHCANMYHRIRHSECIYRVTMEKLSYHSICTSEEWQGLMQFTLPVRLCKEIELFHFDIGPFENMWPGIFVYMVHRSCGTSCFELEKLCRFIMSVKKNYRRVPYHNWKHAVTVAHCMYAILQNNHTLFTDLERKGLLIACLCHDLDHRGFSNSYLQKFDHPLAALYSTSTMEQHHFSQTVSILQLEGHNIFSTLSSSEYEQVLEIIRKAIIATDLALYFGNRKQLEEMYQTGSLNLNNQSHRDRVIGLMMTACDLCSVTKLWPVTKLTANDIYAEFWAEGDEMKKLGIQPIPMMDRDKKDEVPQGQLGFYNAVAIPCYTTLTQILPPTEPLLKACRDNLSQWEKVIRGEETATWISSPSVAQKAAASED

SMILES	inhibition at 10 µM [1]	IC50 (PDE 10a)	inhibition at 2 µM [1]
CCOC(=O)c1c(C(C)C)c(C)n2c1-c1cc(OC)c(OC)cc1CC2 [Example 5]	87%	370 nM	
CCOC(=O)c1c(-c2cccc3ncc(C)cc23)c(C)n2c1-c1cc(OC)c(OC)cc1CC2 [Example 7]	85%	140 nM	
CCOC(=O)c1c(-c2cn(C(C)=O)c3ccccc23)c(C)n2c1-c1cc(OC)c(OC)cc1CC2 [Example 8]	84%	94 nM	
CCOC(=O)c1c(-c2c[nH]c3ccc(OC)cc23)c(C)n2c1-c1cc(OC)c(OC)cc1CC2 [Example 12]		365 nM	73%
CCOC(=O)c1c(-c2cn(C)c3ccccc23)c(C)n2c1-c1cc(OC)c(OC)cc1CC2 [Example 23]		71 nM	90%
CCOC(=O)c1c(-c2c[nH]c3c(OC)cccc23)c(C)n2c1-c1cc(OC)c(OC)cc1CC2 [Example 46, Ethyl-2-(1H-7-methoxy-indol-3-yl)-8,9-dimethoxy-3-methyl-5,6-dihydropyrrolo[2,1-a]isoquinoline-1-carboxylate]		220 nM	90%
CCOC(=O)c1c(-c2cccc3cc[nH]c23)c(C)n2c1-c1cc(OC)c(OC)cc1CC2 [Example 49]		110 nM	91%
CCOC(=O)c1c(-c2c[nH]c3ccc(Cl)cc23)c(C)n2c1-c1cc(OC)c(OC)cc1CC2 [Example 50]		330 nM	77%
CCOC(=O)c1c(-c2c[nH]c3cc(F)ccc23)c(C)n2c1-c1cc(OC)c(OC)cc1CC2 [Example 52]		220 nM	81%
CCOC(=O)c1c(-c2cn(Cc3ccccc3)c3ccccc23)c(C)n2c1-c1cc(OC)c(OC)cc1CC2 [Example 56]		68 nM	64%
CCOC(=O)c1c(-c2cccc3c2ccn3CC)c(C)n2c1-c1cc(OC)c(OC)cc1CC2 [Example 57, Ethyl 2-(1-ethyl-1H-indol-4-yl)-8,9-dimethoxy-3-methyl-5,6-dihydropyrrolo[2,1-a]-isoquinoline-1-carboxylate]		1500 nM	89%
CCOC(=O)c1c(-c2cccc3c2ccn3CCC#N)c(C)n2c1-c1cc(OC)c(OC)cc1CC2 [Example 61]		200 nM	90%
CCOC(=O)c1c(-c2cccc3c(C(=O)C4CC4)c[nH]c23)c(C)n2c1-c1cc(OC)c(OC)cc1CC2 [Example 68, Ethyl 2-[3-(cyclopropylcarbonyl)-1H-indol-7-yl]-8,9-dimethoxy-3-methyl-5,6-dihydropyrrolo[2,1-a]isoquinoline-1-carboxylate]			43%
CCOC(=O)c1c(-c2cccc3c(C(=O)c4ccccc4)c[nH]c23)c(C)n2c1-c1cc(OC)c(OC)cc1CC2 [Example 71]		170 nM	72%
CCOC(=O)c1c(-c2ccc3[nH]cc(C(C)=O)c3c2)c(C)n2c1-c1cc(OC)c(OC)cc1CC2 [Example 72]			81%
CCOC(=O)c1c(-c2ccc3ncoc3c2)c(C)n2c1-c1cc(OC)c(OC)cc1CC2 [Example 76, Ethyl 2-(1,3-benzoxazol-6-yl)-8,9-dimethoxy-3-methyl-5,6-dihydropyrrolo[2,1-a]isoquinoline-1-carboxylate]		150 nM	63%
CCCNC(=O)N1CCc2cc(-c3c(C(=O)OCC)c4n(c3C)CCc3cc(OC)c(OC)cc3-4)ccc21 [Example 81]		100 nM	89%
CCOC(=O)c1c(-c2ccc3c(c2)CCN3S(=O)(=O)c2ccccc2)c(C)n2c1-c1cc(OC)c(OC)cc1CC2 [Example 87]		< 30 nM	95%
CCOC(=O)c1c(-c2ccc3c(c2)CCN3S(C)(=O)=O)c(C)n2c1-c1cc(OC)c(OC)cc1CC2 [Example 88]			40%
